Test results: patent US20080051464A1, “Protein phosphatase inhibitors” (The Cleveland Clinic Foundation, priority 2006, published 2008)

What was measured:
MKPs = assay: induction of MKPs substrates in Jurkat cells (Western blotting); type: cell-based, human; details: for differential effects on MKP substrates (pERK1/2, p38, pJNK): L6 at 1-100 ng/ml
Experimental: FIG. 22 illustrates selective induction of MKPs substrates by L6 and analogs in Jurkat human leukemic cells. Jurkat cells were treated with the compounds for 30 min in culture prior to quantification of MKPs substrates by SDS-PAGE/Western blotting.

prostate cancer DU145 = assay: DU145 cell growth (MTT assay); type: cell-based; details: highest testing dose (5 μg/ml) (FIG. 19E)
From the text: (§1) L5, L6 and L6 analogs (Chembridge), mouse IFNγ ELISPOT Kit (R & D System) and antibody against pLck-pY394 or pERK1/2 (Cell Signaling) were purchased from commercial sources. Human Jurkat T cell line and murine B16 melanoma cell line (ATCC) and other cancer cell lines were maintained in […] culture medium supplemented with 10% fetal calf serum (FCS). The effects of chemical compounds on cancer cell growth in culture were quantified by MTT assays following our established procedures.

B16 melanoma cells = assay: B16 melanoma cell growth in culture (MTT assay); type: cell-based, mouse
From the text: as §1

Jurkat cells = assay: Jurkat cell apoptosis (Annexin V / 7-AAD, FACS); type: cell-based, human; details: 16 hrs (FIG. 23)
Experimental: FIG. 23 illustrates jurkat cells were treated with L6 and analogs in culture for 16 hrs. Cells were then stained for apoptotic marker Annexin V and cell death marker 7-AAD prior to FACS analysis.

[1] = tested on: melanoma MeI-7, colon cancer MC-26, breast cancer 4T1 and prostate cancer DU145; assay: cyto-toxicity against four other cancer cell lines (MTT assay); type: cell-based; details: FIGS. 19B, C and D
From the text: as §1

[2] = tested on: HT-29 human colon cancer cells; assay: cytotoxicity of 5FU against HT-29 cells with L6 or analogs (MTT assay); type: cell-based; details: 5FU 2 μm, 3 days, then 4 days culture (FIG. 24)
Experimental: FIG. 24 illustrates HT-29 cells were treated with L6 or the analogs in the absence or presence of 5FU (2 μm) for 3 days. After washing, the cells were cultured for 4 days prior to quantification of viable cells by MTT assays.

pERK1/2 in B16 cells = pERK1/2 in B16 cells (Western blotting); type: cell-based, mouse; details: 10 min (FIG. 20C)
Experimental: FIG. 20 illustrates L6 induces pERK1/2 in Jurkat and B16 cells. A and B, Western blotting membranes with samples and probed for the SHP-1 substrates were stripped and then re-probed with an antibody for pERK1/2. C, B16 cells were treated with L6 or L6a6 at […] for 10 min and subjected to SDS-PAGE/Western blotting to quantify pERK1/2.

Structure (SMILES) | MKP predominantly targeted (as indicated by effects on the substrates) (MKPs) | differential effects on MKP substrates (pERK1/2, p38, pJNK) (MKPs; 30 min (FIG. 22)) | DU145 cell growth (prostate cancer DU145) | dose that completely killed B16 cells (killing dose) (B16 melanoma cells; FIG. 19A) | toxicity toward B16 cells in culture (B16 melanoma cells; comparable conditions (FIG. 19A)) | Jurkat cell apoptosis (Jurkat cells) | killing dose relative to L6 and L6a6 [1] | augmentation of 5FU cytotoxicity against HT-29 cells [2] | dose inducing pJNK and p-p38 (MKPs; 30 min (FIG. 22)) | induction of pERK1/2 in B16 cells (pERK1/2 in B16 cells)
Cc1ccc(-n2sc3ccccc3c2=O)cc1 [L6a2] | targeted a p38-specific MKP | selectively induced p38 phosphorylation | failed to affect DU145 cell growth | 2.5 µg/mL | little or limited toxicity | apoptosis were induced | 5-10 folds higher |  |  | 
Cc1cc(-n2sc(Cl)c(C)c2=O)ccc1Cl [L6a6] | mainly acted against MKP1 | induced pERK1/2 only at the high doses |  |  |  | apoptosis were induced |  | augmented | ≥ 1 ng/ml | pERK1/2-inducing activity
